In PubChem BioAssay AID248 (DTP/NCI, 2004):
Several values for one entry are separate records, joined by “and”; a condition that tells them apart may be missing. Equal entries are not always repeated. Toxic doses and inconclusive results are not listed. No stated cut-off is given here; in the data, active means T/C of 150% or more; inactive means T/C below 125%.

Test system: L1210 leukemia ip in BDF1 mice, survival T/C
Assay: NCI In Vivo Anticancer Drug Screen. Data for tumor model L1210 Leukemia (intraperitoneal) in B6D2F1 (BDF1) mice
Details: endpoint: mean survival time, higher = longer survival
How it was run: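 Survival endpoint. Drug-treated group vs vehicle group, expressed as T divided by C. Tumor passaged by transplantation.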

[1] = dose: 100.0 mg/kg/injection, schedule: Q01DX009 (ip), vehicle: saline with Tween-80
[2] = dose: 200.0 mg/kg/injection, schedule: Q01DX009 (ip), vehicle: saline with Tween-80
[3] = dose: 400.0 mg/kg/injection, schedule: Q01DX009 (ip), vehicle: saline with Tween-80
[4] = dose: 100.0 mg/kg/injection, schedule: Q01DX009 (ip), vehicle: Klucel (hydroxypropylcellulose) (HPC)
[5] = dose: 100.0 mg/kg/injection, schedule: Q04DX003 (ip), vehicle: Klucel (hydroxypropylcellulose) (HPC)
[6] = dose: 200.0 mg/kg/injection, schedule: Q01DX009 (ip), vehicle: Klucel (hydroxypropylcellulose) (HPC)
[7] = dose: 200.0 mg/kg/injection, schedule: Q04DX003 (ip), vehicle: Klucel (hydroxypropylcellulose) (HPC)
[8] = dose: 400.0 mg/kg/injection, schedule: Q01DX009 (ip), vehicle: Klucel (hydroxypropylcellulose) (HPC)
[9] = dose: 400.0 mg/kg/injection, schedule: Q04DX003 (ip), vehicle: Klucel (hydroxypropylcellulose) (HPC)
[10] = dose: 50.0 mg/kg/injection, schedule: Q01DX001 (ip), vehicle: carboxymethylcellulose (CMC)
[11] = dose: 100.0 mg/kg/injection, schedule: Q01DX001 (ip), vehicle: carboxymethylcellulose (CMC)
[12] = dose: 200.0 mg/kg/injection, schedule: Q01DX001 (ip), vehicle: carboxymethylcellulose (CMC)
[13] = dose: 400.0 mg/kg/injection, schedule: Q01DX001 (ip), vehicle: carboxymethylcellulose (CMC)
[14] = dose: 100.0 mg/kg/injection, schedule: Q04DX003 (ip), vehicle: saline with Tween-80
[15] = dose: 200.0 mg/kg/injection, schedule: Q04DX003 (ip), vehicle: saline with Tween-80
[16] = dose: 400.0 mg/kg/injection, schedule: Q04DX003 (ip), vehicle: saline with Tween-80
[17] = dose: 100.0 mg/kg/injection, schedule: Q01DX009 (ip), vehicle: saline
[18] = dose: 100.0 mg/kg/injection, schedule: Q04DX003 (ip), vehicle: saline
[19] = dose: 200.0 mg/kg/injection, schedule: Q04DX003 (ip), vehicle: saline
[20] = dose: 400.0 mg/kg/injection, schedule: Q04DX003 (ip), vehicle: saline
[21] = dose: 100.0 mg/kg/injection, schedule: Q01DX009 (ip), vehicle: other
[22] = dose: 200.0 mg/kg/injection, schedule: Q01DX009 (ip), vehicle: other
[23] = dose: 400.0 mg/kg/injection, schedule: Q01DX009 (ip), vehicle: other
[24] = dose: 100.0 mg/kg/injection, schedule: Q01DX001 (ip), vehicle: Klucel (hydroxypropylcellulose) (HPC)
[25] = dose: 200.0 mg/kg/injection, schedule: Q01DX001 (ip), vehicle: Klucel (hydroxypropylcellulose) (HPC)
[26] = dose: 400.0 mg/kg/injection, schedule: Q01DX001 (ip), vehicle: Klucel (hydroxypropylcellulose) (HPC)
[27] = dose: 50.0 mg/kg/injection, schedule: Q01DX009 (ip), vehicle: Klucel (hydroxypropylcellulose) (HPC)

Measured: T/C

O=Cc1[nH]c(=S)[nH]c(=O)c1Cc1ccc(Br)cc1
inactive: dose: 100.0 mg/kg/injection, schedule: Q01DX001 (ip), vehicle: saline with Tween-80 106 % of control | [1] 94 % of control | dose: 200.0 mg/kg/injection, schedule: Q01DX001 (ip), vehicle: saline with Tween-80 98 % of control | [2] 91 % of control | dose: 400.0 mg/kg/injection, schedule: Q01DX001 (ip), vehicle: saline with Tween-80 98 % of control | [3] 98 % of control

Cc1cc2oc(/C=C(\C#N)c3ccc([N+](=O)[O-])cc3)c(C)c2cc1C
inactive: [4] 88 % of control | [5] 98 % of control | [6] 103 % of control | [7] 95 % of control | [8] 99 % of control | [9] 98 % of control

C[N+](C)(C)CC(O)CCl (stereo not drawn)
inactive: dose: 100.0 mg/kg/injection, schedule: Q01DX001 (ip), vehicle: saline 95 % of control | dose: 200.0 mg/kg/injection, schedule: Q01DX001 (ip), vehicle: saline 102 % of control

O=[N+]([O-])c1ccc(/C=N/Nc2nnc(N/N=C/c3ccc([N+](=O)[O-])cc3)c3ccccc23)cc1
inactive: [10] 93 % of control | [11] 101 % of control | [12] 93 % of control | [13] 98 % of control

CC1CN=C(c2ccc(O)cc2O)S1 (stereo not drawn)
inactive: dose: 100.0 mg/kg/injection, schedule: Q04DX002 (ip), vehicle: saline 93 % of control | dose: 200.0 mg/kg/injection, schedule: Q04DX002 (ip), vehicle: saline 104 % of control | dose: 400.0 mg/kg/injection, schedule: Q04DX002 (ip), vehicle: saline 96 % of control

CN(C)C(=O)NS(=O)(=O)c1ccc(Cl)cc1
inactive: [5] 91 % of control | [7] 96 % of control | [9] 95 % of control

CCc1ccc(NS(=O)(=O)c2c(C)cc(C)cc2C)cc1
inactive: [4] 101 % of control | [6] 105 % of control | [8] 97 % of control

CCCC(C)C(=O)Nc1cccc(OC(=O)N(C)C)c1 (stereo not drawn)
inactive: [14] 95 % of control | [15] 96 % of control | [16] 93 % of control

OC(Br)C1C(c2ccccc2)N1C1CCCCC1 (stereo not drawn)
inactive: [5] 98 % of control | [7] 91 % of control | [9] 93 % of control

CC1C=NNC1=O (stereo not drawn)
inactive: [1] 124 % of control | [17] 115 % of control | [18] 104 % of control | [19] 112 % of control | dose: 300.0 mg/kg/injection, schedule: Q#B X027 (ip), vehicle: saline 89 % of control | [20] 109 % of control

N#CCC(=O)O
inactive: dose: 18.75 mg/kg/injection, schedule: Q01DX009 (ip), vehicle: saline 98 % of control | dose: 37.5 mg/kg/injection, schedule: Q01DX009 (ip), vehicle: saline 95 % of control | dose: 75.0 mg/kg/injection, schedule: Q01DX009 (ip), vehicle: saline 90 % of control

COc1cccc(OC)c1OC(=O)Nc1ccccc1C(F)(F)F
inactive: [17] 98 % of control | dose: 200.0 mg/kg/injection, schedule: Q01DX009 (ip), vehicle: saline 98 % of control | dose: 400.0 mg/kg/injection, schedule: Q01DX009 (ip), vehicle: saline 100 % of control

COc1cc(O)c(C(=O)O)c(OC)c1
inactive: [21] 103 % of control | [18] 104 % of control | [22] 103 % of control | [19] 102 % of control | [23] 101 % of control | [20] 98 % of control

N#CCC(NC(=O)OCc1ccccc1)C(=O)OCc1ccccc1 (stereo not drawn)
inactive: [1] 98 % of control | [14] 98 % of control | [2] 96 % of control | [15] 93 % of control | [3] 86 % of control | [16] 89 % of control

COC1(c2ccccc2)ON=C(c2ccccc2)C=C1c1ccccc1 (stereo not drawn)
inactive: [18] 93 % of control | [19] 91 % of control | [20] 99 % of control

NCCNCCNCCN1CC1
inactive: dose: 10.0 mg/kg/injection, schedule: Q04DX002 (ip), vehicle: saline 97 % of control | dose: 20.0 mg/kg/injection, schedule: Q04DX002 (ip), vehicle: saline 97 % of control

CS(=O)(=O)OC1CCCCC1Oc1ccc(Br)cc1 (stereo not drawn)
inactive: [24] 106 % of control | [5] 101 % of control | [25] 104 % of control | [7] 113 % of control | [26] 103 % of control | [9] 98 % of control

CC(C)=CC#N
inactive: [14] 90 % of control | [15] 103 % of control | [16] 101 % of control

O=C(NCC1CC1)Nc1cccc2ccccc12
inactive: [21] 98 % of control | [22] 89 % of control | [23] 92 % of control

O=C1C(Br)=CC(=C2C=C(Br)C(=O)C(Br)=C2)C=C1Br
inactive: [27] 104 % of control | [4] 117 % of control | [5] 96 % of control | [6] 104 % of control | [7] 108 % of control

CN(C)C(=O)Nc1nc2ccccc2s1
inactive: dose: 100.0 mg/kg/injection, schedule: Q04DX002 (ip), vehicle: other 88 % of control and 92 % of control | dose: 100.0 mg/kg/injection, schedule: Q04DX003 (ip), vehicle: other 96 % of control and 120 % of control | dose: 200.0 mg/kg/injection, schedule: Q04DX002 (ip), vehicle: other 97 % of control and 100 % of control | dose: 200.0 mg/kg/injection, schedule: Q04DX003 (ip), vehicle: other 99 % of control and 105 % of control | dose: 400.0 mg/kg/injection, schedule: Q04DX002 (ip), vehicle: other 95 % of control and 103 % of control

Cn1cnc(N)c1C(=N)[Se]
inactive: dose: 6.25 mg/kg/injection, schedule: Q01DX009 (ip), vehicle: water 86 % of control | dose: 12.5 mg/kg/injection, schedule: Q04DX003 (ip), vehicle: water 108 % of control | dose: 25.0 mg/kg/injection, schedule: Q04DX003 (ip), vehicle: water 95 % of control

CON=C(c1ccc(N(C)C)cc1)c1ccc(N(C)C)cc1
inactive: [24] 104 % of control | [5] 103 % of control | [25] 101 % of control | [7] 100 % of control | [26] 101 % of control | [9] 92 % of control

O=[N+]([O-])c1cc(S(=O)(=O)Oc2ccccc2)ccc1Cl
inactive: dose: 12.5 mg/kg/injection, schedule: Q01DX009 (ip), vehicle: Klucel (hydroxypropylcellulose) (HPC) 105 % of control | dose: 25.0 mg/kg/injection, schedule: Q01DX009 (ip), vehicle: Klucel (hydroxypropylcellulose) (HPC) 105 % of control | [10] 116 % of control | [27] 100 % of control | [11] 100 % of control | [5] 98 % of control | [12] 100 % of control | [7] 103 % of control | [13] 105 % of control | [9] 89 % of control

Cc1ccc(NC(=O)N(C)N)cc1
inactive: dose: 75.0 mg/kg/injection, schedule: Q01DX001 (ip), vehicle: carboxymethylcellulose (CMC) 102 % of control | dose: 150.0 mg/kg/injection, schedule: Q01DX001 (ip), vehicle: carboxymethylcellulose (CMC) 104 % of control

C=C1C(=O)OC2C1C(OC(=O)/C(=C/C)COC(C)=O)CC1(CO1)C1C(OC(=O)/C(=C/C)CO)C3OC3(C)C21 (stereo not drawn)
inactive: dose: 3.12 mg/kg/injection, schedule: Q01DX009 (ip), vehicle: alcohol 110 % of control | dose: 6.25 mg/kg/injection, schedule: Q01DX009 (ip), vehicle: alcohol 104 % of control | dose: 12.5 mg/kg/injection, schedule: Q01DX009 (ip), vehicle: alcohol 96 % of control
